Values of other authors in patent US7005448B2, “Aminoalkyl-benzofuran-5-ol compounds for the treatment of glaucoma” (priority 2001, dated 2006).
Read-outs that look alike come from different tables or passages of the source.

Assays:
rabbit eye = settings: for intraocular pressure in the anterior chamber of the eye: topically applied to the rabbit eye [Meyer-Bothling et al. 1993]
animals = settings: in vivo
5-HT2A receptor = 5-HT2A receptor (Homo sapiens, UniProt P28223)
[1] = intracamerally [Krootila et al. 1987]

Sequence of 5-HT2A receptor (P28223 whole entry): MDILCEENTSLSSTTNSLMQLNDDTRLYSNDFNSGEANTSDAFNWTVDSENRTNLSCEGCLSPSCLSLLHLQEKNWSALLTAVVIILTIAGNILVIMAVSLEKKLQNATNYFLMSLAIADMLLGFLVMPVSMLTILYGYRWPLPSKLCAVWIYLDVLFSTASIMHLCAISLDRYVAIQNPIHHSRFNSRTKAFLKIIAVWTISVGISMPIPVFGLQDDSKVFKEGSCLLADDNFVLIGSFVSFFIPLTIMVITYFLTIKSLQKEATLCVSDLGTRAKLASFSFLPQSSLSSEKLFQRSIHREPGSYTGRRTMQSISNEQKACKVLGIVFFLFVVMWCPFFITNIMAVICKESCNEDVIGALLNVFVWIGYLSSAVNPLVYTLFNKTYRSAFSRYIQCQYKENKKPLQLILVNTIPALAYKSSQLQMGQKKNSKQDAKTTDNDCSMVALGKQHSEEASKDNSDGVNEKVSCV

In the case of `NCCc1c[nH]c2ccc(C(N)=O)cc12` [Compound 5-CT, 5-carboxamidotryptainine], the “intraocular pressure in the anterior chamber of the eye” value (rabbit eye) is given as “raise intraocular pressure”.

For `CC(N)Cc1c2ccoc2c(Br)c2ccoc12` (stereo not shown) [The Nichols compound], the “generalization to LSD in drug discrimination studies” value (animals) is listed as “generalize to LSD” and the “affinity for the 5-HT2A receptor” value (5-HT2A receptor) is listed as “high affinity”.

In the case of `COc1ccccc1N1CCN(CCCNc2c(C)c(=O)n(C)c(=O)n2C)CC1` [5-methylurapidil], the “α1 receptor antagonist activity” value (α1 receptor) is listed as “relatively potent α1 receptor antagonists” and the IOP (glaucomatous monkeys) is listed as “lowered IOP”.

For `NCCc1c[nH]c2ccc(O)cc12` [Compound 5-HT, 5-hydroxy tryptamine], the IOP (rabbit eye; [1]) is listed as “raised IOP”, the blood-aqueous barrier (rabbit eye; [1]) is listed as “breakdown of the blood-aqueous barrier” and the IOP (rabbit eye; topically applied [Krootila et al. 1987]) is listed as “lowers IOP”. The “intraocular pressure in the anterior chamber of the eye” value (rabbit eye) was “raise intraocular pressure”.

For `c1ccc2c(c1)OC[C@H](CNCCCOc1ccc3c(c1)OCO3)O2` [MKC-242], the “α1 receptor antagonist activity” value (α1 receptor) is listed as “relatively potent α1 receptor antagonists” and the IOP (rabbit eye; rabbits) is listed as “lower IOP”.

In the case of `O=C(c1ccc(F)cc1)C1CCN(CCn2c(=O)[nH]c3ccccc3c2=O)CC1` [Ketanserin], the “α1 receptor antagonist activity” value (α1 receptor) is listed as “significant α1 antagonist activity”, the IOP (human subjects; man) is listed as “lowers IOP” and the IOP (rabbit eye; rabbits) is listed as “lowers IOP”.

In the case of `CC[C@@H](CO)NC(=O)[C@@H]1C=C2c3cccc4c3c(cn4C)C[C@H]2N(C)C1` [Methysergide], the IOP (rabbit eye; rabbits) is given as “lowered IOP”.

In the case of `COc1cccc(CCc2ccccc2OCC(CN(C)C)OC(=O)CCC(=O)O)c1` (stereo not shown) [Saprogrelate], the IOP (human subjects; man, dosed topically or orally) is given as “lowers IOP” and the IOP (rabbit eye; rabbits, dosed topically or orally) is given as “lowers IOP”.

For `CCCN(CCC)C1CCc2cccc(O)c2C1` (stereo not shown) [8-hydroxy DPAT], the IOP (rabbit eye; rabbits) is given as “lower IOP”.

In the case of `CNCCC(Oc1ccc(C(F)(F)F)cc1)c1ccccc1` (stereo not shown) [fluoxetine], the IOP (human subjects; human subjects, oral administration) is listed as “raises IOP”.
